Columns and labels:
[1] = system: Colletotrichum gloeosporioides; assay: Activity against Colletotrichum gloeosporioides in plates; type: cell-based
Procedure: (§1) Colby's method is used to determine if synergy exists for a combination of active ingredients. According to Colby, the expected action (E) of active ingredients A+B is: [formula] • where E=expected efficacy, A and B=the efficacy of two active ingredients A and B at a given dose. When the percentage of control observed (O) for the combination is greater than the expected (E) percentage, there is a synergistic effect. The synergism ratio (R) is calculated as the ratio between the expected values and observed values. […] The compositions were diluted with water. Each formulation with active ingredient is diluted with water and biological efficacy trials on target fungi are conducted.

Ramularia collo-cygni = assay: Activity against Ramularia collo-cygni in plates; type: cell-based
Procedure: as §1

Venturia inaequalis [2] = assay: Sulphur + Difenoconazole on apple fruits incidence for Venturia inaequalis control; type: in vivo; details: 4 days after last application
Procedure: as §1

Venturia inaequalis [3] = assay: Apple fruits classes of damage for Venturia inaequalis control; type: in vivo; details: 14 days after last application; for Class 1 (%): class 1 = no damage; for Class 2 (%): class 2 = 2-3 spots per fruit; for Class 3 (%): class 3 = more than 3 spots per fruit
Procedure: The fungicidal compounds A (sulphur) and B (mix partner) are formulated as equivalent compositions to eliminate the effects of differing formulation inerts on biological activity. Efficacy of the fungicidal compositions is evaluated with reference to a scale of 0% to 100% in comparison with untreated control plots. 0 means no control and 100 means complete control of the target disease.
(§2) The experiments were conducted by applying commercially available formulations of Sulphur and other mixture partners, alone or with their tank-mixed compositions. The compositions were diluted with water.
(§3) Each formulation with active ingredient is diluted with water and biological efficacy trials on target fungi are conducted.

Alternaria solani = assay: Activity against Alternaria solani in plates; type: cell-based
Procedure: as §1

Botrytis cinerea = assay: Activity against Botrytis cinerea in plates; type: cell-based
Procedure: as §1

Zymoseptoria tritici = assay: Wheat yield increase when applied for Zymoseptoria tritici control; type: in vivo
Procedure: as §2, §3

Tetranychus urticae = assay: Activity of Sulphur + Fluazinam against Tetranychus urticae in plates; type: in vivo
Procedure: (§4) Colby's method is used to determine if synergy exists for a combination of active ingredients. According to Colby, the expected action (E) of active ingredients A+B is:
(§5) [formula] • where E=expected efficacy, A and B=the efficacy of two active ingredients A and B at a given dose.
(§6) When the percentage of control observed (O) for the combination is greater than the expected (E) percentage, there is a synergistic effect. The synergism ratio (R) is calculated as the ratio between the expected values and observed values.
(§7) Furthermore, the miticidal and insecticidal efficacy of the compositions are also evaluated with reference to a scale of 0% to 100% in comparison with untreated control plots. 0 means no control and 100 means complete control of the target pest.
as §2
(§8) Each formulation with active ingredient is diluted with water and biological efficacy trials on target pest are conducted.

[4] = system: Trialeurodes vaporariorum; assay: Activity of Sulphur + Fluazinam against Trialeurodes vaporariorum plates; type: in vivo
Procedure: as §4, §5, §6, §7, §2, §8

In the case of `CC1COC(Cn2cncn2)(c2ccc(Oc3ccc(Cl)cc3)cc2Cl)O1` (centres unmarked) [Difenoconazole], the “Observed % control (O)” value ([1]; rate 25 g/ha) is reported as 58.4%, the “Observed % control (O)” value (Ramularia collo-cygni; rate 25 g/ha) is reported as 73.9% and the “Observed % control (O)” value (Venturia inaequalis [2]; rate 37.5 g/ha) is reported as 67.90%. The “Observed % control (O)” value (Venturia inaequalis [2]; rate 50 g/ha) was 69.40%, the “Class 1 (%)” value (Venturia inaequalis [3]; rate 37.5 g/ha) was 92.5% and the “Class 1 (%)” value (Venturia inaequalis [3]; rate 50 g/ha) was 93.5%. For the same compound, the “Class 2 (%)” value (Venturia inaequalis [3]; rate 37.5 g/ha) was 5.2%, the “Class 2 (%)” value (Venturia inaequalis [3]; rate 50 g/ha) was 3.3% and the “Class 3 (%)” value (Venturia inaequalis [3]; rate 37.5 g/ha) was 2.3%. The “Class 3 (%)” value (Venturia inaequalis [3]; rate 50 g/ha) was 3.3%, the “Observed % control (O)” value (Alternaria solani; rate 25 g/ha) was 60.6% and the “Observed % control (O)” value (Botrytis cinerea; rate 25 g/ha) was 62.5%. The “Yield increase versus the untreated (%)” value (Zymoseptoria tritici; untreated = 100, rate 75 g/ha) was 102.26% and the “Yield increase versus the untreated (%)” value (Zymoseptoria tritici; untreated = 100, rate 125 g/ha) was 109.14%.

In the case of Fluazinam, the “Observed % control (O)” value ([1]; rate 150 g/ha) is reported as 60.8%, the “Observed % control (O)” value (Ramularia collo-cygni; rate 150 g/ha) is reported as 36.3% and the “Observed % control (O)” value (Tetranychus urticae; 200 g ai/ha) is reported as 27.5%. The “Observed % control (O)” value (Tetranychus urticae; 250 g ai/ha) was 32.5%, the “Observed % control (O)” value (Tetranychus urticae; 300 g ai/ha) was 32.5% and the “Observed % control (O)” value (Tetranychus urticae; 350 g ai/ha) was 37.5%. The “Observed % control (O)” value ([4]; 200 g ai/ha) was 21.7%, the “Observed % control (O)” value ([4]; 250 g ai/ha) was 23.6% and the “Observed % control (O)” value ([4]; 300 g ai/ha) was 24.1%. The “Observed % control (O)” value ([4]; 350 g ai/ha) was 33.6%, the “Observed % control (O)” value (Alternaria solani; rate 150 g/ha) was 57.5% and the “Observed % control (O)” value (Botrytis cinerea; rate 150 g/ha) was 64.4%.

Reference: US20260256144A1, “FUNGICIDAL MIXTURE COMPOSITION COMPRISING SULPHUR” (ADAMA MAKHTESHIM LTD., priority 2022, published 2026)
